Melting point data for 112 compounds are collected here from a melting point compilation (Tetko et al.).

Structures are written as SMILES.

For `CC1C(=O)NC(=O)C1(C)C` (configuration not stated), the melting point (as a rule, the temperature of the solid-liquid transition) fell in the range of 117 to 122 °C. `CCOC(=O)CC(=O)C=P(c1ccccc1)(c1ccccc1)c1ccccc1` had a melting point of 101 to 106 °C. The result for `Cn1c(=O)c(C2=NNC(=O)C2=CNc2ccc(Br)cc2)c(O)c2ccccc21` reads 293 °C; that for `N#Cc1c(-c2ccc(Br)cc2)cc2c(C#N)c(=N)n(C(=O)c3ccc(Cl)cc3)n2c1N`, 190 °C; that for `BrC(=C(\Br)c1ccccc1)/C(Br)=C(\Br)c1ccccc1`, 236 °C. Then `Oc1c2cccc1Cc1cccc(c1O)Cc1cccc(c1O)Cc1cccc(c1O)C2`, with 317 °C; and `CCOC(=O)c1sc(SCc2ccccc2)c2c1CCCC2=O`, with 139 to 141 °C. `CCC1(O)CCC2C3CCC4=CCCCC4C3CCC21C` (configuration not stated): the melting point was determined as 77 °C. The result for `O=C1C=CC(=O)N1c1ccc(Br)cc1` reads 135 to 137 °C.

`FC(F)(F)C1N=NC(N=Cc2ccc(Cl)cc2)=N1` (configuration not stated) displayed a melting point of 234 °C.

Turning to `Cc1cc2c(o1)-c1c(oc3ccc(Cl)cc13)CCC2C` (configuration not stated), the melting point amounted to 93 °C.

`COC(=O)c1cc2ccccc2cc1C(=O)OC` returned a melting point of 49 °C.

For `Cc1ccc2ccc3ccc(C)cc3c2c1`, the melting point turned out to be 145 °C.

On to `OCC1CCCCC1`, for which the melting point was -43 °C. `C=CC1=C(C(=O)O)N2C(=O)C(NC(=O)C(=NOCC(=O)O)c3csc(N)n3)C2SC1` (configuration not stated) registered a melting point of 222 °C.

Compound `CC1=C(C)C(=O)c2ccccc2C1=O` gave a melting point of 127 °C. Then `C1CNCCNCCNCCN1`, with 108 to 113 °C. As for `N#Cc1c(F)ccc([N+](=O)[O-])c1F`, the melting point was 52.5 °C.

The compound `NC(=O)c1cc(Cl)cc(Cl)c1` showed a melting point of 160 to 162 °C.

`CS(=O)c1cccc(CC(=O)O)c1` (configuration not stated) returned a melting point of 111 °C. The result for `CC12CCC(C(=CCC=C3C(=O)C4(C)CCC3C4(C)C)C1=O)C2(C)C` reads 265 to 267 °C; that for `Cc1cc2c(C#N)c3ccc4ccccc4n3c(=O)c2c(C)n1`, 243 °C. `c1ccc(CN2CCc3c([nH]c4ccccc34)C2)cc1` gave a melting point of 165 to 170 °C.

Consider `CC(=O)C1=C(C)NC(=O)NC1c1ccccc1` (configuration not stated), for which the melting point was 238 °C.

For `O=C(O)C(O)C(O)C(OC1OC(CO)C(O)C(O)C1O)C(O)CO` (configuration not stated), the melting point was in the range of 113 to 118 °C. The result for `O=C(Nc1ccccc1)OC1CCCCCC1OC(=O)Nc1ccccc1` (configuration not stated) reads 217 to 219 °C.

Regarding `N#Cc1c([N+](=O)[O-])ccc(Cl)c1Cl`, the melting point fell in the range of 90 to 93 °C. Then `O=S(=O)(Cl)c1ccc(-c2ccc(F)cc2)cc1`, with 82 to 84 °C; and `COc1cc(OC(F)(F)F)ccc1C#N`, with 35 °C. Take `Cc1nc(-c2ccc(CO)cc2)no1`: the melting point was in the range of 131 to 132 °C. Consider `CCCCCCCCc1ccc(N)cc1`, for which the melting point worked out at 20 °C. `O=S(=O)(Cl)c1ccc(Oc2ccccc2Cl)cc1`: the melting point was 89 to 90 °C. Take `C[Si](C)(Cl)CC[Si](C)(C)Cl`: the melting point is 37 °C. Turning to `O=S1(=O)CCOCC1`, the melting point came to 132 °C. On to `Cc1cc(C(=O)O)cc(C(=O)O)c1`, for which the melting point was determined as 299 °C. Then `CC1C/C(=C\c2ccc([N+](=O)[O-])cc2)C(=O)/C(=C/c2ccc([N+](=O)[O-])cc2)C1` (configuration not stated), with 192 to 193 °C. The compound `O=C1C(Br)C2c3ccccc3C(C1Br)C(Br)C(=O)C2Br` (configuration not stated) had a melting point of 80 °C.

Compound `C1CN2CCN3CCN4CCN1C2C43` (configuration not stated) gave a melting point of 30 °C. Then `CC(C)NC(=S)NN`, with 96 to 97 °C; and `Cc1cccc(N)c1N`, with 63.5 °C. `COC(=O)c1ccc(C)cc1C` had a melting point of -2 °C. Then `C1CCC2CCCC2C1` (configuration not stated), with -53 °C; and `COC(=O)CCCCC(=O)O`, with 9 °C; and `O=C(CBr)c1cc(-c2ccccc2)no1`, with 109 to 112 °C. With `ClCc1csc(-c2ccccc2)n1`, the melting point was in the range of 49 to 50 °C. `Oc1cc(OCc2ccccc2)ccn1`: the melting point is 196 °C. The compound `Brc1cccc2cnccc12` registered a melting point of 82 °C. Compound `CCN1C(=O)CCC1=O` came in with a melting point of 26 °C. Then `NC(=O)NN=CC[N+](=O)[O-]`, with 360 °C; and `NS(=O)(=O)c1ccc(C(F)(F)F)cc1`, with 180 °C; and `NC(=S)COc1cccc(Cl)c1`, with 122 to 124 °C. Then `Cc1nnc(SCc2ccccc2)n1N=Cc1ccccc1Cl`, with 121 to 123 °C; and `Cc1cc(I)cnc1Br`, with 45 °C; and `CCCCCCCCCC1(C)N=C(c2ccccc2)C=[N+]1[O-]` (configuration not stated), with 43 to 46 °C. Then `Cc1ccc(C=C(Oc2cccc(C)c2)c2nc3ccccc3s2)cc1`, with 137 to 139 °C; and `C/C(=N\Cc1cccnc1)c1c(O)c2ccccc2n(-c2ccccc2)c1=O`, with 221 to 222 °C. In the case of `CCCCCCC(=O)OC(=O)CCCCCC`, the melting point is -12 °C.

Compound `NCCNCCNCCN` showed a melting point of -35 °C.

In turn, `CCCCCCCCCCCCC#CC#CCCCCCCCCC(=O)O` yielded a melting point of 64 °C.

On to `O=S(=O)(O)c1ccc2ccc(S(=O)(=O)O)cc2c1`, for which the melting point amounted to 199 °C. The result for `CC(C)(O)C#Cc1ccc(C=NO)cc1` reads 109 to 112 °C. The compound `CN1CCN(c2cccc(N)c2)CC1` gave a melting point of 98 to 99 °C.

Turning to `FC(F)=C(F)C(F)=C(F)F`, the melting point was -132 °C. The result for `COC(=O)c1sc(SC)nc1N` reads 104 °C.

The compound `CCN(CCO)c1ccccc1` yielded a melting point of 37 °C. `BrC(=C(c1ccccc1)c1ccccc1)c1ccccc1`: the melting point fell in the range of 115 to 117 °C. `CC(=O)/C(=C\N)c1ccccc1`: the melting point worked out at 97 °C. The result for `COc1cccc(F)c1C#N` reads 103 °C; that for `CCOC(=O)C1CCN(c2ncnc3ccsc23)CC1`, 64 to 66 °C.

Compound `CC1(C)C(=O)N(Br)C(=O)N1Cl` yielded a melting point of 164 °C. `O=C1OC=CC(c2ccccc2)Cc2ccccc21` (configuration not stated): the melting point stood at 120 °C. As to `NN=C1c2ccccc2-c2ccccc21`, the melting point came out at 152 °C.

Regarding `O=C(c1ccc2ccccc2c1)C(Br)c1ccccc1` (configuration not stated), the melting point is 101 to 108 °C. Then `CC(=N[Si](C)(C)C)O[Si](C)(C)C`, with 24 °C. Then `NC(=O)Cc1cccs1`, with 147 °C. Then `N#Cc1cccc(Cl)n1`, with 87 °C; and `COc1ccc(C(=O)c2ccc(OC)cc2)cc1`, with 144 °C; and `C=CC(C)(C)C(=O)O`, with -6 °C. Compound `[O-][P+](c1ccccc1)(c1ccccc1)C1c2ccccc2Oc2ccccc21` yielded a melting point of 161 °C. The result for `NC(=NO)c1ccc(Oc2ccc(F)cc2F)c([N+](=O)[O-])c1` reads 164 to 167 °C; that for `O=C1CC[C@H](C(=O)O)O1`, 69 to 72 °C.

With `Oc1cc(C(F)(F)F)nc2ccc(OC(F)(F)F)cc12`, the melting point fell in the range of 229 to 232 °C. The result for `COC(=O)c1cc(OCc2cc(COc3cc(C(=O)OC)cc(C(=O)OC)c3)cc(COc3cc(C(=O)OC)cc(C(=O)OC)c3)c2)cc(C(=O)OC)c1` reads 188 °C; that for `N#CCOc1cccc(Cl)c1`, 29 °C; that for `CC(Nc1cc(C)ccn1)=C(C#N)C(=O)c1ccccc1`, 102 to 103 °C. Then `N#C/C(=N\Nc1c(Cl)cc(Cl)cc1Cl)c1nc2ccccc2[nH]1`, with 263 °C; and `N[C@@H]1C=C[C@H](C(=O)O)C1`, with 180 °C. The result for `CCN(CC)c1ccc(C(C)=O)cc1` reads 48 °C. Take `CCOc1ccccc1[N+](=O)[O-]`: the melting point came to 2.2 °C. In turn, `CCCCCCCC(N)=O` showed a melting point of 108 °C. In turn, `ClC1=C(Cl)C(Cl)(Cl)C(Cl)(Cl)C1(Cl)Cl` had a melting point of 40 °C. Then `COC(=O)c1c(Cl)nn(C)c1S(=O)(=O)NC(=O)Nc1nc(OC)cc(OC)n1`, with 176 °C; and `CN1C(C(=O)Nc2ccccn2)=C(O)c2ccccc2S1(=O)=O`, with 198 °C. `O=C(O)CC1NC(=O)NC1=O` (configuration not stated): the melting point lay within 213 to 216 °C. Then `CC(C)(C)OC(=O)NC(Cc1cccs1)C(=O)O` (configuration not stated), with 71 to 76 °C; and `Nc1ccc2ccc3ccccc3c2c1`, with 143 °C; and `c1ccc(-c2oc(-c3ccccc3)c(-c3ccccc3)c2-c2ccccc2)cc1`, with 175 °C. Then `CN(N)c1cnn(C)c(=O)c1Cl`, with 131 to 133 °C; and `CCCCCCCCCCCCCCCCCC(=O)OCCC(C)C`, with 25.5 °C; and `CC1=C(C)C(O)OC1=O` (configuration not stated), with 82 °C. Then `N#Cc1ccc(N=C=S)cc1`, with 120 °C; and `O=S(=O)(Cl)c1c(Cl)ccc2nonc12`, with 73 to 75 °C; and `Cc1ccc(C2(O)CCN(CCCC(=O)c3ccc(F)cc3)CC2)cc1`, with 118 °C. The compound `Nc1ccc(Cl)cc1O` displayed a melting point of 152 to 157 °C. The result for `COc1c2ccoc2cc2oc(C)cc(=O)c12` reads 144 °C; that for `CC(=O)C1CCC2C3C=CC4=CC(=O)CCC4(C)C3CCC12C` (configuration not stated), 170 °C; that for `CCOC(=O)CCCC(=O)OCC`, -24.1 °C.

The compound `N#Cc1cccc2ccsc12` gave a melting point of 67.5 to 72.5 °C.

For `CCCCOc1ccc(N)c([N+](=O)[O-])c1`, the melting point lay within 64 to 66 °C.

Compound `CCOC(=O)C(CO)(CO)C(=O)OCC` yielded a melting point of 50 °C.

Compound `Nc1c(C(=O)O)cccc1C(F)(F)F` came in with a melting point of 157 to 160 °C. `CC(=O)Nc1ccc(C(C)=O)c(C)c1` showed a melting point of 139 °C.
